Laboratory results: US12396988B2, “Methods of using muscarinic antagonists in the treatment of depression” (BOARD OF REGENTS, THE UNIVERSITY OF TEXAS SYSTEM, priority 2019, dated 2025)
Entries after “also recorded” stand apart in the source; their conditions may differ. Structures can show the parent of a compound that is named as a salt.

Legend:
M2 receptor = target: T1, M2 receptor (Rattus norvegicus, UniProt P10980); assay: Cardiovascular assay (bradycardia test): antagonism of arecoline-induced bradycardia, telemetry; type: in vivo; settings: 1 mg/kg test compound s.c. before 10 mg/kg arecoline s.c., rats, FIG. 1
T1 construct: To measure changes in heart rate and mean arterial pressure, rats were implanted with telemetric transmitters; from tissue; host or cells: intact living rats (cardiovascular system, telemetry)
T1 sequence (P10980 1-466): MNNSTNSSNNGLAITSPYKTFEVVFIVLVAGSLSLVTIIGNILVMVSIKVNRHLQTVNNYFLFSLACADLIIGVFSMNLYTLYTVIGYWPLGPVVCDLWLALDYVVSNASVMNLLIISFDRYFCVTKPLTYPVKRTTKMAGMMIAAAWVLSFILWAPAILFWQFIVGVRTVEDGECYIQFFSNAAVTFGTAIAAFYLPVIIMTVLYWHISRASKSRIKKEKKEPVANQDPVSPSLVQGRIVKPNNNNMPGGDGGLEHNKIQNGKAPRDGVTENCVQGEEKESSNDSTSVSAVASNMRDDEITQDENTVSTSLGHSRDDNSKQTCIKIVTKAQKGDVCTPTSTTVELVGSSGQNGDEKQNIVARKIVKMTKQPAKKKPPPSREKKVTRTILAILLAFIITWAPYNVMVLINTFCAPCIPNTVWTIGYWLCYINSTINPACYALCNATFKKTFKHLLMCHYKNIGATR
Text: All rats continued to have free access to food and water at all times.

rats [1] = assay: Drug discrimination test (arecoline vs saline; discriminative stimulus and rate-decreasing effects of arecoline); type: in vivo, Sprague-Dawley rats; settings: 1.0 mg/kg CJ2100, rats, FIG. 2
Text: Rats are initially trained to nose-poke 10 times in any aperture to receive a dipper of Ensure (fixed ratio 10 FR-10 schedule of reinforcement). Nose-poke biases are noted, and the following assignments are made for the 2-nose-poke condition: 1) approximately half of the rats in each group will have the drug-associated aperture on the left, and the remaining rats will have the drug-associated aperture on the right; 2) the drug-associated aperture is assigned to the non-preferred side in half of the rats.
During training, the rats are injected with saline or their training drug and immediately placed in the chamber for a 5-min blackout, followed by a 20-min response period. […]
When these criteria have been met on 3 consecutive days, testing can begin. […] When the effects of putative antagonists are to be evaluated, these drugs are given 15 min before the start of the session, and the training drug is injected immediately before the rat is placed in the chamber. […]
Data analysis: Full generalization to a test compound is defined as >85% responding on the drug-appropriate aperture, and completing at least one ratio. Discrimination data are expressed as the percent responses on the drug-appropriate aperture, out of the total number of responses made in both apertures. Rates of responding are calculated as well: total number of responses/time during the light-on parts of the session. […]

rats [2] = assay: Forced swim test (FST); type: in vivo; settings: 3 mg/kg, 30 min before a 15-min swim, FIG. 4
Description: In the FST, the rats are injected with a test compound and 30 minutes later placed individually in a cylindrical container filled with water at room temperature. The rat's behavior is videotaped from above and is later scored by a trained observed who is blind to the drug conditions. Behavior is classified every 5 seconds over the 15 minute swim period as the following: immobility the rat is hanging quietly in the water, making only enough movement to keep its nose out of the water; swimming moving limbs in an active manner, climbing or actively moving its forepaws against the side of the chamber.
Rats of both sexes as well as rats from the Flinders straw were used for forced swim tests. The rats were injected with a saline control or CJ2100 (0.1 mg/kg, 0.3 mg/kg, 1 mg/kg, or 3 mg/kg) and 30 min later placed individually a cylindrical container (46 cm tall×20 cm, diameter) filled to 30 cm with 25° C. water for a single 15-min forced swim test. Rat behavior was videotaped from above and later scored by a trained observer who was blind to the drug conditions. Behavior was classified every 5 seconds over the 15 minute swim period as following: immobility rat was hanging quietly in the water, making only enough movement to keep its nose out of the water; swimming moving limbs in an active manner, climbing, or actively moving its forepaws against the side of the chamber. […]

rats [3] = assay: Cognitive evaluation: delayed-matching-to-sample (DMTS) touch-screen task, short-term memory; type: in vivo; settings: doses 0.1-3.2 mg/kg, FIG. 5 left panel
Text: In cognitive evaluation tests, rats are exposed to a touch screen procedure that evaluates memory (delayed matching to sample, DMTS) and attention (psychomotor vigilance). In the DTMS, a commonly used recognition task to test short-term memory, the subject (a rat) is presented with a sample stimulus. In our procedure, when the rats touch the sample stimulus it terminates on the screen. After a pre-set delay two comparison stimuli appear. A touch response on the comparison stimulus that matches some physical property of the sample stimulus (i.e. color) results in reward delivery. Touching the incorrect comparison stimulus results in a timeout. Accuracy is then plotted vs different delay values to determine a “forgetting function”. This same procedure has been used by many others to assess the deleterious effects of various classes of psychoactive drugs.
(§1) Additional tests involved a novel touch-screen procedure that evaluated memory (delayed-matching-to-sample, DMTS) and attention (psychomotor vigilance, PVT).
In the DMTS, a commonly used recognition task to test short-term memory, rats were presented with a sample stimulus. When the rats touched the sample stimulus, it terminated on the screen. After a pre-set delay, two comparison stimuli appeared. […] Accuracy was then plotted vs. different delay values to determine a “forgetting function.”

rats [4] = assay: Cognitive evaluation: psychomotor vigilance (PVT) touch-screen task, attention; type: in vivo; settings: doses 0.1-10 mg/kg, FIG. 5 right panel
Text: Psychomotor vigilance is used to evaluate drug effects of attention and vigilance over a period of time. Championed by David Dinges of U. Penn School of Medicine, it is a reaction timed task to measure the speed with which subjects responds to a visual stimulus. In the task, stimuli of varying intensity are presented to a subject (a rat) in randomized location on the screen following unpredictable intervals. The reaction time of the rat to the stimuli will provide a reliable attention threshold in each individual subject. Attention will decrease over time which serves as a baseline for degradation of sustained vigilance. For these studies, a stimulus is presented on a screen in a random location following a variable time interval (5, 15, 30 seconds). Duration of presentation of the stimulus is 2 seconds on first trial. If the correct stimulus is touched by the rat within 2 seconds, a mild reward is delivered and duration of stimulus presentation is […] by 0.25 seconds for subsequent trials (across 500 trials).
as §1
Psychomotor vigilance (PVT) is used to evaluate drug effects on attention and vigilance over a period of time. Championed by David Dinges of U. Penn. […]

rats [5] = settings: cited from earlier work
humans = settings: cited from earlier work
[6] = 1.0 mg/kg scopolamine (Winger et al. 2020)

Row | SMILES | Effect on arecoline-induced bradycardia (M2 receptor) | Shift to the right in the discriminative stimulus effects of arecoline (rats [1]) | Immobility in forced swim test (rats [2]) | Swimming in forced swim test (rats [2]) | Effect on ability of the rats to respond in DMTS task (cognitive effect) (rats [3]) | Mean duration of short term memory (DMTS) (rats [3]) | Effect on ability of the rats to respond in PVT task (cognitive effect) (rats [4]) | Mean titration duration of the stimulus (PVT) (rats [4]) | Effect on the discriminative stimulus of arecoline (rats [5]; [6]) | Effect on the rate-modifying effects of arecoline (rats [5]; [6]) | Ability to modify the discriminative stimulus effects of arecoline (rats [5]; compared with CJ2100) | Ability to modify the rate-suppressing effects of arecoline (rats [5]; compared with CJ2100) | Cognitive side effects (humans) | Anti-depressant effect in humans (humans; oral and intravenous treatment)
1 | CN1CCC=C(c2nc(C3CC3)no2)C1 [CJ2100, 3-(3-alkyl-1,2,4-oxadiazol-5-yl)-1,2,5,6-tetrahydro-1-methylpylidine oxalate] | attenuates this effect; also recorded: complete attenuation of this effect | ~1 log unit | decrease in immobility | significant increase in swimming | did not modify the ability of the rats to respond; also recorded: silent | approximately 7 sec | did not modify the ability of the rats to respond; also recorded: silent | approximately 2 sec | – | – | – | – | – | –
2 | CN1[C@@H]2C[C@@H](OC(=O)[C@H](CO)c3ccccc3)C[C@H]1[C@@H]1O[C@@H]12 [scopolamine] | – | – | – | – | – | – | – | – | without affecting the discriminative stimulus of arecoline | appeared to increase the rate-modifying effects of arecoline | much less able than CJ2100 to modify | much less able than CJ2100 to modify | severe cognitive deficits; also recorded: cognitive impairment including memory disturbances | rapid anti-depressant effects
